The term IC50 denotes the concentration that gives 50% inhibition. A lower IC50 goes with greater potency in that assay.

This test has as its target T1, ecto-5′-nucleotidase (Nt5e) (Streptococcus sanguinis, UniProt I3RY26).
T1 construct: native enzyme on whole cells of S. sanguinis strain 133-79
The experiment in a line: whole-cell AMPase activity (phosphate release) dose-inhibition and Michaelis-Menten analysis. The format is cell-based.

T1 sequence (I3RY26 entry or part of it): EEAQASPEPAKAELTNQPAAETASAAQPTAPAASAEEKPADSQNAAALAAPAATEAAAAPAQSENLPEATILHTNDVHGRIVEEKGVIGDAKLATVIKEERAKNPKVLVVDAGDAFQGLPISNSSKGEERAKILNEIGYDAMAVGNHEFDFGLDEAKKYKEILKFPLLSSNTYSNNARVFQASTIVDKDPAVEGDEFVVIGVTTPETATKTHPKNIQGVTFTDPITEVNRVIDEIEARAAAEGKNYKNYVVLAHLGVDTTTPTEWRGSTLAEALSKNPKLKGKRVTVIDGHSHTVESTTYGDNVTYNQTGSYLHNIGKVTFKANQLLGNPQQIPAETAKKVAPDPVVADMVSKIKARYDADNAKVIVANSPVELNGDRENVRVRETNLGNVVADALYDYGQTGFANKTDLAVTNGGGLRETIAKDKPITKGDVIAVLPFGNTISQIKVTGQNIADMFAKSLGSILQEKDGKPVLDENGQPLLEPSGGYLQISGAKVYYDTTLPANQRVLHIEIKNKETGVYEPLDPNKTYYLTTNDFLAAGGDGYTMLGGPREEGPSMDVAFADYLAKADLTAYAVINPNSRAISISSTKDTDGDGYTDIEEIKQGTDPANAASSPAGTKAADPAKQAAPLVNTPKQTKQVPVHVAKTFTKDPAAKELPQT

Take `Nc1ncnc2c1ncn2[C@@H]1O[C@H](COP(=O)(O)CP(=O)(O)O)[C@@H](O)[C@H]1O` [APCP]: the midpoint of inhibition, the IC50, lay at 8.8 ± 3.8 µM.

The values are drawn from PMC3369921, “Ecto-5′-Nucleotidase: A Candidate Virulence Factor in Streptococcus sanguinis Experimental Endocarditis” (PLoS ONE, 2012).
